# Results published in ChEMBL document CHEMBL3217570, “A class of novel AA-Trp-Trp-OBzl: synthesis, in vitro anti-proliferation, in vivo anti-tumor action, and intercalation mechanism” (Medchemcomm, 2011).
# Residues, ends and D or L forms follow the SMILES beside them. *: point of attachment. OBn = c1ccc(CO*)cc1
# Assays:
# [1] = tested on: CCRF S-180; assay: Antiproliferative activity against mouse S180 cells after 48 hrs by MTT assay; assay type: functional, cell-based; details: CCRF S-180, 48 h
# [2] = tested on: K562; assay: Antiproliferative activity against human K562 cells after 48 hrs by MTT assay; assay type: functional, cell-based; details: K562, 48 h
# [3] = tested on: B16; assay: Antiproliferative activity against mouse B16 cells after 48 hrs by MTT assay; assay type: functional, cell-based; details: B16, 48 h
# [4] = tested on: H22; assay: Antiproliferative activity against mouse H22 cells after 48 hrs by MTT assay; assay type: functional, cell-based; details: H22, 48 h
# [5] = tested on: HepG2; assay: Antiproliferative activity against human HepG2 cells after 48 hrs by MTT assay; assay type: functional, cell-based; details: HepG2, 48 h
# [6] = tested on: CCRF S-180; assay: Antitumor activity against mouse S180 cells allografted in ICR mouse assessed as tumor growth inhibition at 8.9 mg/kg, ip qd for 7 days relative to control; assay type: functional; details: CCRF S-180, ip, 168 h, route intraperitoneal, read-out: TGI
# [7] = tested on: Mus musculus; assay: Toxicity in mouse S180 cells allografted ICR mouse assessed as liver weight at 8.9 mg/kg, ip qd for 7 days relative to control; assay type: organism-based, CCRF S-180; set-up: dose 8.9 mg/kg, route intraperitoneal; details: in vivo, 168 h
# [8] = tested on: Mus musculus; assay: Toxicity in mouse S180 cells allografted ICR mouse assessed as brain weight at 8.9 mg/kg, ip qd for 7 days relative to control; assay type: organism-based, CCRF S-180; set-up: dose 8.9 mg/kg, route intraperitoneal; details: in vivo, 168 h
# [9] = tested on: Mus musculus; assay: Toxicity in mouse S180 cells allografted ICR mouse assessed as kidney weight at 8.9 mg/kg, ip qd for 7 days relative to control; assay type: organism-based, CCRF S-180; set-up: dose 8.9 mg/kg, route intraperitoneal; details: in vivo, 168 h
# [10] = tested on: Mus musculus; assay: Toxicity in mouse S180 cells allografted ICR mouse assessed as spleen index at 8.9 mg/kg, ip qd for 7 days relative to control; assay type: organism-based, CCRF S-180; set-up: dose 8.9 mg/kg, route intraperitoneal; details: in vivo, 168 h
# [11] = tested on: Mus musculus; assay: Toxicity in mouse S180 cells allografted ICR mouse assessed as increase of body weight at 8.9 mg/kg, ip qd for 7 days relative to control; assay type: organism-based, CCRF S-180; set-up: dose 8.9 mg/kg, route intraperitoneal; details: in vivo, 168 h
# [12] = tested on: Mus musculus; assay: Neurotoxicity in ICR mouse assessed as neurotoxic behavior up to 500 mg/kg, ip after 7 days; assay type: toxicity, organism-based; set-up: dose 500 mg/kg, route intraperitoneal; details: in vivo, 168 h
# [13] = tested on: Mus musculus; assay: Toxicity in ICR mouse assessed as mortality up to 500 mg/kg, ip after 7 days; assay type: organism-based; set-up: dose 500 mg/kg, route intraperitoneal; details: in vivo, 168 h
# [14] = tested on: Mus musculus; assay: Toxicity in ICR mouse assessed as changes in organs up to 500 mg/kg, ip after 7 days by necropsy analysis; assay type: organism-based; set-up: dose 500 mg/kg, route intraperitoneal; details: in vivo, 168 h
# [15] = Acute toxicity in ip dosed ICR mouse after 7 days; assay type: organism-based; details: in vivo
Structure (SMILES),IC50 [1] [µM],IC50 [2] [µM],IC50 [3] [µM],IC50 [5] [µM],IC50 [4] [µM],inhibition in vivo at 8.9 mg/kg [6] [%],Activity [7],Activity [8],Activity [9],Activity [10],Activity [11],Activity [12],Activity [13],Activity [14],LD50 at 168 h [15] [mg/kg]
CC[C@H](C)[C@H](N)C(=O)N[C@@H](Cc1c[nH]c2ccccc12)C(=O)N[C@@H](Cc1c[nH]c2ccccc12)C(=O)OCc1ccccc1 (H-Ile-Trp-Trp-OBn),15.1,16.2,17.2,15.1,16.1,80.1,Non-toxic,Non-toxic,Non-toxic,Non-toxic,Toxic,Non-toxic,Non-toxic,Non-toxic,> 500
CSCC[C@H](N)C(=O)N[C@@H](Cc1c[nH]c2ccccc12)C(=O)N[C@@H](Cc1c[nH]c2ccccc12)C(=O)OCc1ccccc1 (H-Met-Trp-Trp-OBn),19.8,17,25.2,24.3,17.5,61.5,Non-toxic,Non-toxic,Non-toxic,Non-toxic,Toxic,Non-toxic,Non-toxic,Non-toxic,> 500
N[C@@H](Cc1ccccc1)C(=O)N[C@@H](Cc1c[nH]c2ccccc12)C(=O)N[C@@H](Cc1c[nH]c2ccccc12)C(=O)OCc1ccccc1 (H-Phe-Trp-Trp-OBn),34,43.7,34,41.2,37.6,24.7,Non-toxic,Non-toxic,Non-toxic,Non-toxic,Toxic,Non-toxic,Non-toxic,Non-toxic,> 500
O=C(N[C@@H](Cc1c[nH]c2ccccc12)C(=O)N[C@@H](Cc1c[nH]c2ccccc12)C(=O)OCc1ccccc1)[C@@H]1CCCN1 (H-Pro-Trp-Trp-OBn),76,91.8,94,91.7,91.5,12.5,Non-toxic,Non-toxic,Non-toxic,Non-toxic,Toxic,–,–,–,–

# Continued, in another order:
IC50 [1] [µM],IC50 [2] [µM],IC50 [3] [µM],IC50 [5] [µM],Structure (SMILES),IC50 [4] [µM],inhibition in vivo at 8.9 mg/kg [6] [%],Activity [7],Activity [8],Activity [9],Activity [10],Activity [11],Activity [12],Activity [13],Activity [14],LD50 at 168 h [15] [mg/kg]
36.7,37.9,53.4,41.5,CC(C)C[C@H](N)C(=O)N[C@@H](Cc1c[nH]c2ccccc12)C(=O)N[C@@H](Cc1c[nH]c2ccccc12)C(=O)OCc1ccccc1 (H-Leu-Trp-Trp-OBn),36,13.8,Non-toxic,Non-toxic,Non-toxic,Non-toxic,Toxic,–,–,–,–
33,34.5,57.4,25.9,NCCCC[C@H](N)C(=O)N[C@@H](Cc1c[nH]c2ccccc12)C(=O)N[C@@H](Cc1c[nH]c2ccccc12)C(=O)OCc1ccccc1 (H-Lys-Trp-Trp-OBn),33,15,Non-toxic,Non-toxic,Non-toxic,Non-toxic,Toxic,–,–,–,–
155,173,182,155,C[C@@H](O)[C@H](N)C(=O)N[C@@H](Cc1c[nH]c2ccccc12)C(=O)N[C@@H](Cc1c[nH]c2ccccc12)C(=O)OCc1ccccc1 (H-Thr-Trp-Trp-OBn),153,-7.66,Non-toxic,Non-toxic,Non-toxic,Non-toxic,Toxic,–,–,–,–
142,164,162,163,N[C@@H](Cc1c[nH]c2ccccc12)C(=O)N[C@@H](Cc1c[nH]c2ccccc12)C(=O)N[C@@H](Cc1c[nH]c2ccccc12)C(=O)OCc1ccccc1 (H-Trp-Trp-Trp-OBn),106,-19.1,Non-toxic,Non-toxic,Non-toxic,Non-toxic,Toxic,–,–,–,–
